Read-outs that look alike come from different tables or passages of the source.
Key:
ethanol dependent rats = assay: Voluntary ethanol intake in ethanol dependent (alcohol preferring) rats, free choice between 10% ethanol solution and water; type: in vivo, Long Evans rats
Text: Ethanol dependent rats were selected as previously described (Boismare F., Daoust M., Moore N., Saligaut C., Chadelaud M., Chrétien P., Durlach J., Lhuintre J. P., A homotaurine derivative reduces the voluntary intake of ethanol by rats: are cerebral GABA receptors involved?, Pharm. Biochem. Behav., 21, 787-789, 1984).
Adult male Long Evans rats weighing 180±20 g at the beginning of the experiment were obtained from “Centre d'élevage Janvier” (France). The rats were housed in individual cages and had free access to food (UAR, France standard diet). They were kept with an ambient temperature of 21° C. and a 12 hr/12 hr light-dark photoperiod. […] Every other day, fluid intakes and body weights were measured, the drinking bottles were refilled and randomly rotated. Food consumption was also measured each week be weighting food pellets. […]
All the drugs were prepared as saline (NaCl 0.9%) solutions and animals were daily i.p. injected with: acamprosate 100 mg/kg, naltrexone 10 mg/kg, acamprosate 100 mg/kg+naltrexone 10 mg/kg or saline 1 ml/200 g body weight. […] Alcohol intakes were expressed as gram of absolute alcohol drunk per kilo of body weight per day (g.kg.d) for alcohol.
FIG. 1 represents means±sem of ethanol intake, expressed as gram of absolute alcohol during each period of pre-treatment, treatment and post-treatment in all groups of rats. […]

[1] = tested on: alcohol dependent patients; settings: used together with supportive therapy; cited from earlier work

Compound | Ethanol intake (ethanol dependent rats) | Rate of relapse to heavy drinking [1] | Ethanol intake (ethanol dependent rats; acamprosate 100 mg/kg daily i.p., 14 days treatment period, p<0.008)
O=C1CC[C@@]2(O)[C@H]3Cc4ccc(O)c5c4[C@@]2(CCN3CC2CC2)[C@H]1O5 [naltrexone] | significantly decreased | reduce the rate of relapse to heavy drinking | –
CC(=O)NCCCS(=O)(=O)O [acamprosate] | – | – | significantly decreased

Source: patent US6512009B1, “Combination for the treatment of alcohol and drug dependence containing an opioid antagonist and a NMDA receptor complex modulator” (Lipha, priority 1998, dated 2003)
